From paper PMC4537502 (Psychopharmacology, 2015)

Columns and labels:
[1] = plasma radioactivity and metabolite analysis after ^11C-SA4503 injection; assay type: in vivo; conditions: rat, 60 min, saline-treated
Procedure: From these samples, 25 μl of whole blood was collected and plasma (25 μl) was then obtained by centrifugation of the remaining sample (5 min at 13,000×g). Radioactivity in plasma and whole blood was determined using a calibrated gamma counter (CompuGamma CS1282, LKB-Wallac, Turku, Finland).

[2] = Biodistribution of ^11C-SA4503-derived radioactivity; assay type: in vivo; conditions: rat, 80 min after injection, mean ± SEM

COc1ccc(CCN2CCN(CCCc3ccccc3)CC2)cc1OC [^11C-SA4503, 1-[2-(3,4-dimethoxyphenethyl)]-4-(3-phenylpropyl)piperazine]
parent tracer (^11C-SA4503) remaining unchanged in plasma [1]: 55% | Uptake of radioactivity (SUV values), Adipose tissue ([2]; 3 mg/kg pridopidine): 0.27 ± 0.06 SUV | Uptake of radioactivity (SUV values), Adrenal gland ([2]; 3 mg/kg pridopidine): 23.0 ± 4.1 SUV | Uptake of radioactivity (SUV values), Bladder ([2]; 3 mg/kg pridopidine): 0.88 ± 0.38 SUV | Uptake of radioactivity (SUV values), Bone ([2]; 3 mg/kg pridopidine): 0.26 ± 0.03 SUV | Uptake of radioactivity (SUV values), Bone marrow ([2]; 3 mg/kg pridopidine): 2.62 ± 0.67 SUV | Uptake of radioactivity (SUV values), Cerebellum ([2]; 3 mg/kg pridopidine): 0.76 ± 0.17 SUV | Uptake of radioactivity (SUV values), Cerebral cortex ([2]; 3 mg/kg pridopidine): 1.17 ± 0.17 SUV | Uptake of radioactivity (SUV values), Heart ([2]; 3 mg/kg pridopidine): 0.23 ± 0.01 SUV | Uptake of radioactivity (SUV values), Intestine (large) ([2]; 3 mg/kg pridopidine): 1.21 ± 0.12 SUV | Uptake of radioactivity (SUV values), Intestine (small) ([2]; 3 mg/kg pridopidine): 1.93 ± 0.40 SUV | Uptake of radioactivity (SUV values), Kidney ([2]; 3 mg/kg pridopidine): 2.10 ± 0.09 SUV | Uptake of radioactivity (SUV values), Liver ([2]; 3 mg/kg pridopidine): 7.71 ± 0.89 SUV | Uptake of radioactivity (SUV values), Lung ([2]; 3 mg/kg pridopidine): 1.05 ± 0.06 SUV | Uptake of radioactivity (SUV values), Muscle ([2]; 3 mg/kg pridopidine): 0.13 ± 0.01 SUV | Uptake of radioactivity (SUV values), Pancreas ([2]; 3 mg/kg pridopidine): 5.02 ± 0.64 SUV | Uptake of radioactivity (SUV values), Pituitary ([2]; 3 mg/kg pridopidine): 2.13 ± 0.44 SUV | Uptake of radioactivity (SUV values), Plasma ([2]; 3 mg/kg pridopidine): 0.14 ± 0.02 SUV | Uptake of radioactivity (SUV values), Red blood cells ([2]; 3 mg/kg pridopidine): 0.07 ± 0.01 SUV | Uptake of radioactivity (SUV values), Rest brain ([2]; 3 mg/kg pridopidine): 1.10 ± 0.05 SUV | Uptake of radioactivity (SUV values), Spleen ([2]; 3 mg/kg pridopidine): 2.03 ± 0.12 SUV | Uptake of radioactivity (SUV values), Submandibular gland ([2]; 3 mg/kg pridopidine): 4.48 ± 0.64 SUV | Uptake of radioactivity (SUV values), Urine ([2]; 3 mg/kg pridopidine): 1.60 ± 0.87 SUV | Uptake of radioactivity (SUV values), Adipose tissue ([2]; 15 mg/kg pridopidine): 0.36 ± 0.04 SUV | Uptake of radioactivity (SUV values), Adrenal gland ([2]; 15 mg/kg pridopidine): 10.7 ± 4.1 SUV | Uptake of radioactivity (SUV values), Bladder ([2]; 15 mg/kg pridopidine): 0.83 ± 0.22 SUV | Uptake of radioactivity (SUV values), Bone ([2]; 15 mg/kg pridopidine): 0.44 ± 0.05 SUV | Uptake of radioactivity (SUV values), Bone marrow ([2]; 15 mg/kg pridopidine): 2.20 ± 0.77 SUV | Uptake of radioactivity (SUV values), Cerebellum ([2]; 15 mg/kg pridopidine): 0.73 ± 0.03 SUV | Uptake of radioactivity (SUV values), Cerebral cortex ([2]; 15 mg/kg pridopidine): 0.87 ± 0.05 SUV | Uptake of radioactivity (SUV values), Heart ([2]; 15 mg/kg pridopidine): 0.38 ± 0.02 SUV | Uptake of radioactivity (SUV values), Intestine (large) ([2]; 15 mg/kg pridopidine): 0.74 ± 0.08 SUV | Uptake of radioactivity (SUV values), Intestine (small) ([2]; 15 mg/kg pridopidine): 1.70 ± 0.15 SUV | Uptake of radioactivity (SUV values), Kidney ([2]; 15 mg/kg pridopidine): 2.07 ± 0.15 SUV | Uptake of radioactivity (SUV values), Liver ([2]; 15 mg/kg pridopidine): 7.21 ± 0.83 SUV | Uptake of radioactivity (SUV values), Lung ([2]; 15 mg/kg pridopidine): 1.47 ± 0.04 SUV | Uptake of radioactivity (SUV values), Muscle ([2]; 15 mg/kg pridopidine): 0.22 ± 0.02 SUV | Uptake of radioactivity (SUV values), Pancreas ([2]; 15 mg/kg pridopidine): 6.23 ± 0.53 SUV | Uptake of radioactivity (SUV values), Pituitary ([2]; 15 mg/kg pridopidine): 2.75 ± 0.72 SUV | Uptake of radioactivity (SUV values), Plasma ([2]; 15 mg/kg pridopidine): 0.28 ± 0.02 SUV | Uptake of radioactivity (SUV values), Red blood cells ([2]; 15 mg/kg pridopidine): 0.16 ± 0.01 SUV | Uptake of radioactivity (SUV values), Rest brain ([2]; 15 mg/kg pridopidine): 0.65 ± 0.03 SUV | Uptake of radioactivity (SUV values), Spleen ([2]; 15 mg/kg pridopidine): 1.99 ± 0.07 SUV | Uptake of radioactivity (SUV values), Submandibular gland ([2]; 15 mg/kg pridopidine): 5.77 ± 0.39 SUV | Uptake of radioactivity (SUV values), Urine ([2]; 15 mg/kg pridopidine): 0.50 ± 0.09 SUV | Uptake of radioactivity (SUV values), Adipose tissue ([2]; Baseline): 0.26 ± 0.05 SUV | Uptake of radioactivity (SUV values), Adrenal gland ([2]; Baseline): 25.7 ± 3.6 SUV | Uptake of radioactivity (SUV values), Bladder ([2]; Baseline): 0.70 ± 0.10 SUV | Uptake of radioactivity (SUV values), Bone ([2]; Baseline): 0.44 ± 0.14 SUV | Uptake of radioactivity (SUV values), Bone marrow ([2]; Baseline): 2.57 ± 0.47 SUV | Uptake of radioactivity (SUV values), Cerebellum ([2]; Baseline): 1.95 ± 0.12 SUV | Uptake of radioactivity (SUV values), Cerebral cortex ([2]; Baseline): 1.97 ± 0.15 SUV | Uptake of radioactivity (SUV values), Heart ([2]; Baseline): 0.33 ± 0.04 SUV | Uptake of radioactivity (SUV values), Intestine (large) ([2]; Baseline): 1.72 ± 0.13 SUV | Uptake of radioactivity (SUV values), Intestine (small) ([2]; Baseline): 2.33 ± 0.28 SUV | Uptake of radioactivity (SUV values), Kidney ([2]; Baseline): 4.19 ± 0.20 SUV | Uptake of radioactivity (SUV values), Liver ([2]; Baseline): 6.47 ± 0.63 SUV | Uptake of radioactivity (SUV values), Lung ([2]; Baseline): 1.98 ± 0.18 SUV | Uptake of radioactivity (SUV values), Muscle ([2]; Baseline): 0.15 ± 0.02 SUV | Uptake of radioactivity (SUV values), Pancreas ([2]; Baseline): 4.95 ± 0.74 SUV | Uptake of radioactivity (SUV values), Pituitary ([2]; Baseline): 3.24 ± 0.03 SUV | Uptake of radioactivity (SUV values), Plasma ([2]; Baseline): 0.11 ± 0.02 SUV | Uptake of radioactivity (SUV values), Red blood cells ([2]; Baseline): 0.10 ± 0.03 SUV | Uptake of radioactivity (SUV values), Rest brain ([2]; Baseline): 2.23 ± 0.31 SUV | Uptake of radioactivity (SUV values), Spleen ([2]; Baseline): 2.62 ± 0.27 SUV | Uptake of radioactivity (SUV values), Submandibular gland ([2]; Baseline): 3.60 ± 0.18 SUV | Uptake of radioactivity (SUV values), Urine ([2]; Baseline): 0.35 ± 0.16 SUV
